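Assay format: 96-well plates, 48-hour exposure. TGI denotes the concentration required for complete inhibition of growth.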
Experiments:
Assay in all cases: growth of human tumour cells (NCI), 48 h
[1] = system: 786-0 renal
[2] = system: A549 NSCLC
[3] = system: HOP-62 NSCLC
[4] = system: MALME-3M melanoma
[5] = system: NCI-H460 lung
[6] = system: RXF 393 renal
[7] = system: SF-539 CNS
[8] = system: SK-MEL-2 melanoma
[9] = system: SK-MEL-5 melanoma
[10] = system: U251 CNS
[11] = system: UACC-257 melanoma

| SMILES | TGI [1] [µM] | TGI [2] [µM] | TGI [3] [µM] | TGI [4] [µM] | TGI [5] [µM] | TGI [6] [µM] | TGI [7] [µM] | TGI [8] [µM] | TGI [9] [µM] | TGI [10] [µM] | TGI [11] [µM] |
| --- | --- | --- | --- | --- | --- | --- | --- | --- | --- | --- | --- |
| CCOC(=O)C1=C(C)N(Cc2ccccc2)C2(O)C=CC(=O)C3=C(O)c4ccccc4C(=O)C312 (stereo not drawn) | 26.2 | 39.8 | 31.8 | 8.35 | 24.4 | 19.7 | 32.6 | 30.4 | 22 | 38.5 | 32.6 |
| CC(=O)c1sc2[n+](c1C)C(=O)/C(=C\c1ccccc1Cl)S2 | 38.2 | 43.6 | 47.7 | 32.4 | 30.2 | 47.4 | 44.7 | 55.8 | 23.4 | 30.5 | 42.3 |
| Cc1ccc2c(c1C)C(=O)/C(=C/c1cccc(C)c1C(=O)O)C2 | > 100 | > 100 | > 100 | > 100 | > 100 | > 100 | > 100 | > 100 | > 100 | > 100 | > 100 |
| CCNC(=S)N/N=C(\C)c1cccc(C)n1 | > 100 | > 100 | > 100 | > 100 | 26.4 | > 100 | 45.1 | > 100 | 23.8 | 83.2 | > 100 |
| CN(C)CCCNC(=O)c1cn2c(ccc3sc4ccccc4c(=O)c32)n1 | 8.08 | 28.3 | 28 | 24.4 | 2.73 | 21.8 | 33.1 | 38.4 | 3.34 | 3.22 | 30.3 |
| C[C@H](CCC(=O)NCC(=O)O)[C@H]1CC[C@H]2[C@@H]3[C@H](O)C[C@@H]4C[C@H](O)CC[C@]4(C)[C@H]3CC[C@]12C | > 100 | > 100 | > 100 | > 100 | > 100 | > 100 | > 100 | > 100 | > 100 | > 100 | > 100 |
| COc1cc(C(C#N)NNc2nc(C)cc(=O)[nH]2)cc(OC)c1OC (stereo not drawn) | > 100 | > 100 | > 100 | > 100 | > 100 | > 100 | > 100 | > 100 | > 100 | > 100 | > 100 |
| CC(=O)Nc1ccc(-c2nnc(SCC(=O)Nc3ccc(Cl)cc3)o2)cc1 | 19.6 | 32 | 39.7 | 29.4 | 36.8 | 22.6 | 30.2 | 49 | 19.7 | 12.9 | 40.9 |
| Cc1ccc(/C=C2/N=C(N/N=C\c3ccccc3)NC2=O)cc1 | 55.6 | > 100 | > 100 | > 100 | > 100 | 66 | > 100 | > 100 | > 100 | 89.6 | > 100 |
| CC(=O)NC1C(OCc2ccccc2)OC(CO)C(O)C1OCC(=O)N[C@@H](C)C(=O)N[C@H](CCC(=O)NCCCNc1ccc([N+](=O)[O-])c2[nH]c3ccccc3c(=O)c12)C(N)=O (stereo partly drawn) | > 100 | > 100 | > 100 | > 100 | > 100 | > 100 | > 100 | > 100 | > 100 | > 100 | > 100 |
| CC/C(=C\c1ccc(OC)cc1)c1ccc(OC)cc1 | > 100 | > 100 | > 100 | > 100 | > 100 | > 100 | > 100 | > 100 | 80.7 | > 100 | > 100 |
| Cc1ccc(S(=O)(=O)Nn2c(O)c(C#N)c(-c3ccc([N+](=O)[O-])cc3)c(C#N)c2=O)cc1 | > 100 | > 100 | > 100 | > 100 | > 100 | > 100 | > 100 | > 100 | > 100 | > 100 | > 100 |
| CSCCCNC(=O)[C@H](CSC)NC(=O)c1csc(CCNC(=O)[C@@H](NSc2ccccc2[N+](=O)[O-])C(C)O)n1 (stereo partly drawn) | > 100 | > 100 | > 100 | > 100 | > 100 | > 100 | > 100 | > 100 | > 100 | > 100 | > 100 |
| O=c1[nH]c2ccc([N+](=O)[O-])cc2nc1/C=C(\O)c1ccccc1 | 20.6 | > 100 | 22.1 | > 100 | 16.5 | 49.8 | 69.8 | > 100 | > 100 | 30.3 | > 100 |
| O=c1[nH]nc(-c2ccccc2)n1-n1cnnc1 | > 100 | > 100 | > 100 | > 100 | > 100 | > 100 | > 100 | > 100 | > 100 | > 100 | > 100 |
| COc1cc(/C=N/NC2=NCCN2)ccc1O | > 100 | > 100 | > 100 | > 100 | > 100 | > 100 | > 100 | > 100 | > 100 | > 100 | > 100 |
| COc1cc2c3c(cc(Cl)nc3c1OC)C(O)(CC(=O)c1ccccc1)C(=O)N2 (stereo not drawn) | 22 | 33.1 | 36 | 4.04 | 43.1 | 27.4 | 5.27 | 30 | 32.3 | 32.7 | 21.4 |

| SMILES | TGI [1] [µM] | TGI [2] [µM] | TGI [3] [µM] | TGI [4] [µM] | TGI [5] [µM] | TGI [6] [µM] | TGI [7] [µM] | TGI [8] [µM] | TGI [9] [µM] | TGI [10] [µM] | TGI [11] [µM] |
| --- | --- | --- | --- | --- | --- | --- | --- | --- | --- | --- | --- |
| O=C1N(c2ccccc2)C(=S)/C(=C/c2ccc(Cl)cc2)N1c1ccc(Cl)cc1 | 64.2 | > 100 | > 100 | 63.9 | > 100 | > 100 | 41.2 | > 100 | > 100 | 96.6 | > 100 |
| C=C1C(=O)OC2C3OC(C)(CCC(O)C3COC(C)=O)CC(OC(=O)/C(=C/C)COC(C)=O)C12 (stereo not drawn) | 0.394 | 22.1 | 10.1 | 0.0763 | 2.22 | 0.515 | 3.22 | 6.96 | 2.65 | 2.88 | 1.96 |
| Cc1ccc(NC(=O)CC(=O)n2nc(C)c(N=Nc3cccc(C)c3)c2C)cc1 | > 100 | > 100 | > 100 | > 100 | > 100 | > 100 | > 100 | > 100 | > 100 | > 100 | > 100 |
| c1cc2c(cc1C1=NCCN1)c1cc(C3=NCCN3)ccc1n2CC1CCCCC1 | 96.4 | > 100 | 94.8 | 23.8 | 34.5 | > 100 | 19.2 | 34.6 | 36.2 | 22.9 | 59.3 |
| O=P(O)(O)CN1CCNCCN(CP(=O)(O)O)CC1 | > 100 | 58.7 | > 100 | > 100 | > 100 | > 100 | > 100 | > 100 | 71.8 | > 100 | > 100 |
| O=C(Nc1ccc(Cl)cc1)c1cc(S(=O)(=O)Nc2n[nH]c(=O)n2-c2ccccc2)c(S)cc1Cl | > 100 | > 100 | > 100 | > 100 | > 100 | > 100 | > 100 | > 100 | > 100 | > 100 | > 100 |
| Cc1ccc(S[C@@H](C)[C@@](O)(C(N)=O)c2ccccc2)cc1 | > 100 | > 100 | 62.6 | 42.8 | > 100 | > 100 | 60.3 | > 100 | 81.1 | > 100 | > 100 |
| CC(C)=NOC(=O)Nc1cccc2c1OCO2 | > 100 | > 100 | > 100 | > 100 | > 100 | > 100 | > 100 | > 100 | > 100 | > 100 | > 100 |
| N#Cc1nc(/C=C/c2cccnc2)oc1N | > 100 | > 100 | > 100 | > 100 | > 100 | > 100 | > 100 | > 100 | > 100 | > 100 | > 100 |
| CCCCCCCCCCCCOP(=O)(O)OP(=O)(O)OCC1OC(n2cc(C)c(=O)[nH]c2=O)CC1O (stereo not drawn) | > 100 | > 100 | > 100 | > 100 | > 100 | > 100 | > 100 | > 100 | > 100 | > 100 | > 100 |
| COc1ccc2c([nH]c3c(O)c(-c4c(C)cc5c([nH]c6c(CC=C(C)C)c(OC)ccc65)c4O)c(C)cc32)c1CC=C(C)C | > 100 | > 100 | > 100 | > 100 | > 100 | > 100 | > 100 | > 100 | > 100 | > 100 | > 100 |
| CN1CCN([C@H]2C[C@H]3[C@@H]4CC=C5C[C@@H](O)CC[C@]5(C)[C@H]4CC[C@]3(C)[C@H]2O)CC1 | 32.1 | > 100 | > 100 | > 58.1 | > 59.2 | 51.9 | > 56.5 | > 100 | > 54.7 | 32.8 | > 69.3 |
| CC(C)NC(=O)OCc1c(COC(=O)NC(C)C)c(-c2cc[n+](COC(=O)C3CCCCC3)cc2)n2c1CCC2 | > 100 | > 100 | > 100 | > 100 | > 100 | > 100 | > 100 | > 100 | > 100 | > 100 | > 100 |
| O=C(NCCCCCN1CCC2(CCCCC2)CC1)C(C1CCCCC1)C1CCCCC1 | 9.65 | 16.7 | 4.07 | 3.26 | 6.46 | 8.92 | 3.43 | 4.82 | 2.96 | 8.53 | 3.43 |
| O=S(=O)(O)c1cc(S(=O)(=O)O)c2c(N=Nc3ccc(N=Nc4ccccc4)cc3)c(O)ccc2c1 | > 100 | > 100 | > 100 | > 100 | > 100 | > 100 | > 100 | > 100 | > 100 | > 100 | > 100 |
| O=c1c2ccccc2nc(-c2ccccc2)n1NC(=S)Nc1cccc(Cl)c1 | > 100 | > 100 | > 100 | > 100 | > 100 | 67.1 | > 100 | > 100 | > 100 | > 100 | > 100 |

Source: PubChem BioAssay (NCI)
